One experiment concerns P. berghei, N strain. The experiment in a line: In vivo test in mice infected with P. berghei, N strain. As to conditions: for Mortality: female SWISS mice, 4 subcutaneous injections D0-D2. As for the experimental part:
Methodology: the laboratory mice can be infected with various strains of rodent Plasmodium. Female SWISS mice (about 30 g) (5 per group) were inoculated on D0 with […] P. berghei parasites, chloroquinine-sensitive, lethal strain. The mice were treated between D0 and D2 using 4 subcutaneous injections of chloroquinine or of compound SN1, with a total dose of 1 or 10 mg/kg of weight. The parasitemia and mortality were monitored from D3, for at least 40 days.
The compound SN1 and its salt, SN1 ditartrate, were tested.

The subject of experiment [1] is field strains (Francevilloises strains). As to the kind of experiment: In vitro inhibition of parasite proliferation (3[H] hypoxanthine incorporation), field strains. In kind it is cell-based, Plasmodium falciparum. Here is the method: As mentioned above, the in vitro activity of organometallic complexes of the invention was measured on field strains.
(§1) The proliferation of the parasites is measured by incorporation of ^3 [H] hypoxanthine applied to the cultures 16 hours before the end of the culture. The radioactive hypoxanthine is absorbed by the developing parasites. The quantity absorbed is measured by a Beta counter in counts per minute.

For the next experiment, the system named is P. yoelii, strain NS. The experiment in a line: In vivo test in mice infected with chloroquinine-resistant P. yoelii, strain NS. As to conditions: 10 mg/kg.
In experiment [2] the test system is P. falciparum line M25 (chloroquinine-sensitive). The experiment in a line: In vitro activity on established line M25 (48 h culture). In kind it is cell-based. As to conditions: Plasmodium falciparum, two experiments, one line each. As for the experimental part: as §1
(§2) Three P. faciparum lines M25, chloroquinine-sensitive, and FCM 6 and FCM 17, chloroquinine-resistant, were cultured at a parasitemia rate approaching 1%, at the trophozoite stage, for a period of 48 hours.

The subject of experiment [3] is P. falciparum line FCM 6 (chloroquinine-resistant). The experiment in a line: microbe, parasite or virus in culture. Type of experiment: cell-based. The conditions noted are these: Plasmodium falciparum, FCM6, chloroquinine-resistant; two experiments, one line each. Here is the method: as §1, §2
Experiment [4] deals with P. falciparum line FCM 17 (chloroquinine-resistant). The experiment in a line: microbe, parasite or virus in culture. Type of experiment: cell-based. As to conditions: Plasmodium falciparum, FCM17, chloroquinine-resistant; two experiments, one line each. As for the experimental part: as §1, §2

In brackets after ≈: the same amount, converted by molar mass. Like-named read-outs stand apart in the source and are kept apart here.

Regarding `CN(C)Cc1ccc[c-]1CNc1ccnc2cc(Cl)ccc12.[Fe+2].c1cc[cH-]c1` (centres unmarked) [SN1], the Mortality is reported as 5/5 in the experiment on P. berghei, N strain (Exp 1, total dose 1 mg/kg); 1/5 in the experiment with P. berghei, N strain (Exp 1, total dose 10 mg/kg); 5/5 in the experiment with P. berghei, N strain (Exp 2, total dose 1 mg/kg); 0/5 with P. berghei, N strain (Exp 2, total dose 10 mg/kg). For the same compound, the “in vivo activity compared with chloroquinine” value with P. berghei, N strain (in words, mice, P. berghei) is on record as “better activity than chloroquinine in vivo”. For the same compound, the IC50 in experiment [1] (Strain No. 17, read-out: IC50) turned out to be 20 nM; in experiment [1] (Strain No. 265, read-out: IC50), 170 nM; in experiment [1] (Strain No. 309, read-out: IC50), 110 nM; in experiment [1] (Strain No. 823, read-out: IC50) it was 120 nM; in experiment [1] (Strain No. 917, read-out: IC50) it was 10 nM; in experiment [1] (Strain No. 926, read-out: IC50) it was 230 nM. Further, in experiment [1] (Strain No. 935, read-out: IC50), the IC50 is 120 nM. The “action on the sole chloroquinine-resistant strain tested so far” value in experiment [1] (in words, in vitro) was “marked action”. For the same compound, the “action on the inhibition of parasitemia” value in experiment [1] (in words, in vitro, compared with quinine) is recorded as “greater action on the inhibition of parasitemia than quinine”.

Consider `CCN(CC)CCCC(C)Nc1ccnc2cc(Cl)ccc12` (centres unmarked) [Chloroquinine], for which the Mortality in the experiment with P. berghei, N strain (Exp 1, total dose 1 mg/kg) is 5/5; in the experiment on P. berghei, N strain (Exp 1, total dose 10 mg/kg), 5/5; in the experiment with P. berghei, N strain (Exp 2, total dose 1 mg/kg), 5/5; in the experiment on P. berghei, N strain (Exp 2, total dose 10 mg/kg) it was 5/5. For the same compound, the “parasites detected / parasitemia” value in the experiment with P. yoelii, strain NS is on record as “high parasitemia”. The IC50 in experiment [2] was 0.069 µg/mL (≈ 0.216 µM); in experiment [1] (Plasmodium falciparum, Strain No. 17), 200 nM; in experiment [1] (Plasmodium falciparum, Strain No. 265), above 1000 nM; in experiment [1] (Plasmodium falciparum, Strain No. 309), 980 nM; in experiment [1] (Plasmodium falciparum, Strain No. 823) it was above 1000 nM; in experiment [1] (Plasmodium falciparum, Strain No. 917), 190 nM. The IC50 is above 1000 nM in experiment [1] (Plasmodium falciparum, Strain No. 926); above 1000 nM in experiment [1] (Plasmodium falciparum, Strain No. 935); 190 to 1000 nM in experiment [1] (Plasmodium falciparum, read-out: IC50 (range over strains), Francevilloises strains, 7 strains tested); 2000 nM in experiment [1] (Plasmodium falciparum, read-out: ID 50, Strain No. 17); above 10000 nM in experiment [1] (Plasmodium falciparum, read-out: ID 50, Strain No. 265); 9800 nM in experiment [1] (Plasmodium falciparum, read-out: ID 50, Strain No. 309). In addition, the IC50 in experiment [1] (Plasmodium falciparum, read-out: ID 50, Strain No. 823) is above 10000 nM; in experiment [1] (Plasmodium falciparum, read-out: ID 50, Strain No. 917) it was 1900 nM; in experiment [1] (Plasmodium falciparum, read-out: ID 50, Strain No. 926), above 10000 nM; in experiment [1] (Plasmodium falciparum, read-out: ID 50, Strain No. 935) it was above 10000 nM; in experiment [3], 0.492 µg/mL (≈ 1.54 µM); in experiment [4], 0.555 µg/mL (≈ 1.74 µM). Moreover, the “chloroquinine-resistance of the strains” value in experiment [1] (in words, Francevilloises strains) is on record as “high chloroquinine-resistance”.

Values taken from US6127543A, “Antimalarial organometallic iron complexes” (Universite des Sciences et Technologies de Lille, priority 1995, dated 2000).
